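Dose response: 5 concentrations. Exposure: 48 h. Format: 96-well plates. Endpoint: linear interpolation; highest concentration if not reached. Here, GI50 denotes the concentration required for 50% inhibition of growth.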 The source made the active and inactive calls. Rule as the data show it: active = GI50 up to about 1.1 µM and inactive = higher.
Assays:
Test in all cases: DTP human tumour cell line panel, 48 h
UACC-257 = tested on: UACC-257
MOLT-4 = tested on: MOLT-4
HOP-62 = tested on: HOP-62
SF-268 = tested on: SF-268
SK-OV-3 = tested on: SK-OV-3
SN12C = tested on: SN12C
A549 = tested on: A549
K562 = tested on: K562
SNB-19 = tested on: SNB-19
COLO 205 = tested on: COLO 205
SW-620 = tested on: SW-620
U-251 = tested on: U-251
Malme-3M = tested on: Malme-3M
HCT-116 = tested on: HCT-116
IGROV-1 = tested on: IGROV-1
SK-MEL-28 = tested on: SK-MEL-28
SF-539 = tested on: SF-539
NCI-H226 = tested on: NCI-H226
HCT-15 = tested on: HCT-15
CAKI-1 = tested on: CAKI-1

SMILES	GI50 (UACC-257)	GI50 (MOLT-4)	GI50 (HOP-62)	GI50 (SF-268)	GI50 (SK-OV-3)	GI50 (SN12C)	GI50 (A549)	GI50 (K562)	GI50 (SNB-19)	GI50 (COLO 205)	GI50 (SW-620)	GI50 (U-251)	GI50 (Malme-3M)	GI50 (HCT-116)	GI50 (IGROV-1)	GI50 (SK-MEL-28)	GI50 (SF-539)	GI50 (NCI-H226)	GI50 (HCT-15) [µM]	GI50 (CAKI-1)
CC1C(=O)C(C)C(c2ccco2)N(N=O)C1c1ccco1 (stereo not given)	> 100 µM (inactive)	> 100 µM (inactive)	> 100 µM (inactive)	> 100 µM (inactive)	> 100 µM (inactive)	> 100 µM (inactive)	> 100 µM (inactive)	> 100 µM (inactive)	> 84.1 µM (inactive)	> 100 µM (inactive)	> 100 µM (inactive)	> 100 µM (inactive)	> 100 µM (inactive)	> 100 µM (inactive)	> 100 µM (inactive)	> 100 µM (inactive)	> 100 µM (inactive)	> 100 µM (inactive)	> 100	> 100 µM (inactive)
O=c1[nH]cnc(NC2C=C(CO)C(O)C2O)c1[N+](=O)[O-] (stereo not given)	> 100 µM (inactive)	> 100 µM (inactive)	> 100 µM (inactive)	> 100 µM (inactive)	> 100 µM (inactive)	> 100 µM (inactive)	> 83.2 µM (inactive)	> 100 µM (inactive)	> 100 µM (inactive)	> 62.7 µM (inactive)	> 43.2 µM (inactive)	> 63.5 µM (inactive)	> 100 µM (inactive)	> 37.7 µM (inactive)	> 100 µM (inactive)	> 100 µM (inactive)	> 100 µM (inactive)	> 100 µM (inactive)	> 40.3	> 100 µM (inactive)
Cc1nc(Cl)c(C)c(Cl)n1	> 100 µM (inactive)	6.17 µM (inactive)	> 77.4 µM (inactive)	> 100 µM (inactive)	> 100 µM (inactive)	> 100 µM (inactive)	> 100 µM (inactive)	18.3 µM (inactive)	> 100 µM (inactive)	> 100 µM (inactive)	> 55.8 µM (inactive)	> 100 µM (inactive)	> 100 µM (inactive)	> 100 µM (inactive)	15.9 µM (inactive)	> 93.3 µM (inactive)	> 100 µM (inactive)	> 100 µM (inactive)	> 63.4	0.0216 µM (active)
O=C1CCC(=O)C1=NNc1ccccc1	> 100 µM (inactive)	> 100 µM (inactive)	> 100 µM (inactive)	> 100 µM (inactive)	> 100 µM (inactive)	> 100 µM (inactive)	> 100 µM (inactive)	> 100 µM (inactive)	> 100 µM (inactive)	> 100 µM (inactive)	> 100 µM (inactive)	> 100 µM (inactive)	> 100 µM (inactive)	> 100 µM (inactive)	> 100 µM (inactive)	> 100 µM (inactive)	> 100 µM (inactive)	> 100 µM (inactive)	> 100	> 100 µM (inactive)
O=C(Nc1ccccc1C(=O)NCCCO)/C(=C/c1ccccc1O)NC(=O)c1ccccc1	> 100 µM (inactive)	> 100 µM (inactive)	20.5 µM (inactive)	35.6 µM (inactive)	51.5 µM (inactive)	> 80.9 µM (inactive)	> 100 µM (inactive)	> 100 µM (inactive)	16.9 µM (inactive)	> 100 µM (inactive)	> 84.3 µM (inactive)	30 µM (inactive)	95.3 µM (inactive)	37.3 µM (inactive)	36.6 µM (inactive)	> 100 µM (inactive)	30.8 µM (inactive)	39.3 µM (inactive)	> 78.2	> 100 µM (inactive)
OC(c1cc2ccccc2[nH]1)C(O)(c1cc2ccccc2[nH]1)c1cc2ccccc2[nH]1 (stereo not given)	16.3 µM (inactive)	8.07 µM (inactive)	15.4 µM (inactive)	15.6 µM (inactive)	10.4 µM (inactive)	5.53 µM (inactive)	12.6 µM (inactive)	10.9 µM (inactive)	27.2 µM (inactive)	4.44 µM (inactive)	10.1 µM (inactive)	25.8 µM (inactive)	28.4 µM (inactive)	6.92 µM (inactive)	8.81 µM (inactive)	19.1 µM (inactive)	41.4 µM (inactive)	11.8 µM (inactive)	10	19.9 µM (inactive)
Fc1nc(Sc2ncnc3nc[nH]c23)nc(-c2c3ccccc3c3sc4ccccc4n23)n1	> 100 µM (inactive)	77.8 µM (inactive)	> 100 µM (inactive)	36.3 µM (inactive)	> 100 µM (inactive)	> 100 µM (inactive)	> 100 µM (inactive)	> 100 µM (inactive)	> 100 µM (inactive)	> 100 µM (inactive)	> 100 µM (inactive)	> 100 µM (inactive)	> 100 µM (inactive)	> 100 µM (inactive)	> 100 µM (inactive)	85.5 µM (inactive)	> 100 µM (inactive)	> 100 µM (inactive)	> 100	> 100 µM (inactive)
Cn1cnc2c(NCc3ccccc3)nc(NCCO)nc21 [OLOMOUCINE]	> 95.3 µM (inactive)	70.1 µM (inactive)	29.3 µM (inactive)	49 µM (inactive)	> 95.5 µM (inactive)	90.2 µM (inactive)	43.9 µM (inactive)	107 µM (inactive)	48.6 µM (inactive)	30.1 µM (inactive)	43.5 µM (inactive)	64.4 µM (inactive)	98.2 µM (inactive)	34.8 µM (inactive)	42.3 µM (inactive)	52.8 µM (inactive)	42.2 µM (inactive)	51.3 µM (inactive)	41.3	33.7 µM (inactive)
CCC1(c2ccncc2)CCC(=O)NC1=O (stereo not given) [ROGLETIMIDE]	> 100 µM (inactive)	> 100 µM (inactive)	> 100 µM (inactive)	> 100 µM (inactive)	> 100 µM (inactive)	> 100 µM (inactive)	> 100 µM (inactive)	> 100 µM (inactive)	> 100 µM (inactive)	> 100 µM (inactive)	> 100 µM (inactive)	> 100 µM (inactive)	> 100 µM (inactive)	> 100 µM (inactive)	> 100 µM (inactive)	> 100 µM (inactive)	> 100 µM (inactive)	> 100 µM (inactive)	> 100	> 100 µM (inactive)
Nc1nc2[nH]cnc2c(=S)[nH]1 [THIOGUANINE]	2.1 µM (inactive)	0.269 µM (active)	0.78 µM (active)	1.09 µM (active)	0.548 µM (active)	1.31 µM (inactive)	3.63 µM (inactive)	0.385 µM (active)	76.9 µM (inactive)	1.75 µM (inactive)	1.45 µM (inactive)	5.12 µM (inactive)	1.28 µM (inactive)	0.538 µM (active)	4.85 µM (inactive)	9.4 µM (inactive)	1.05 µM (active)	4.41 µM (inactive)	1.08	0.621 µM (active)
